Target: T1, P2Y6 (P2ry6^WT BMDMs) (Mus musculus, UniProt Q9ERK9)
T1 construct: native full-length receptor, endogenous in mouse bone marrow-derived macrophages (BMDMs); no tag
Test: Fura-2 intracellular calcium response, BMDMs, Hill fit
Format: cell-based
Details: agonist, native mouse BMDMs, peak F340/F380 normalized to ionomycin, pH 7.4, response absent in P2ry6^ΔMy BMDMs

T1 sequence (Q9ERK9 whole entry): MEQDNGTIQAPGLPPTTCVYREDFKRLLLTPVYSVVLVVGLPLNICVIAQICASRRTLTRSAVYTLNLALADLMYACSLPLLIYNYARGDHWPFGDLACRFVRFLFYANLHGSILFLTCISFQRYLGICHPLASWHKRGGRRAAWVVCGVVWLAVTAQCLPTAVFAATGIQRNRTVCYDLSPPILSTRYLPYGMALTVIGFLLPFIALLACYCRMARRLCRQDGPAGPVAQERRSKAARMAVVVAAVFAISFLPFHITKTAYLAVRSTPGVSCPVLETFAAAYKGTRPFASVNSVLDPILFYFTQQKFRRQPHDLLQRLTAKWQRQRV

| SMILES | EC50 (n = 3) [µM] | EC50 (n = 6, possible conversion to UDP by ectonucleotidases) [µM] |
| --- | --- | --- |
| O=c1ccn([C@@H]2O[C@H](COP(=O)(O)OP(=O)(O)O)[C@@H](O)[C@H]2O)c(=O)[nH]1 [UDP] | 0.042 ± 0.005 |  |
| O=c1ccn([C@@H]2O[C@H](COP(=O)(O)OP(=O)(O)OP(=O)(O)O)[C@@H](O)[C@H]2O)c(=O)[nH]1 [UTP] |  | 0.103 ± 0.012 |

Source: PMC11358017, “Nucleotide metabolism in cancer cells fuels a UDP-driven macrophage cross-talk, promoting immunosuppression and immunotherapy resistance” (Nature Cancer, 2024)
